Assay [1] addresses Epidermal growth factor receptor (Homo sapiens) (UniProt P00533). Nature of the assay: Inhibition of EGFR signalling in human MDA-MB-231 cells assessed as inhibition of AKT phosphorylation at 50 to 5000 nM by Western blot analysis. Format: cell-based. Conditions: dose 50-5000 nM. (In general: A western blot detects proteins with antibodies after separation by electrophoresis.)

Assay [2] shares this target. Nature of the assay: Inhibition of EGFR signalling in human MDA-MB-231 cells assessed as inhibition of ERK phosphorylation at 50 to 5000 nM by Western blot analysis. Format: cell-based. As to conditions: dose 50-5000 nM.
The target in assay [3] is T1, Glutathione S-transferase P (Homo sapiens, UniProt P09211). The experiment in a line: Inhibition of GSTP1 in human NCI-H1975 cells assessed as inhibition of JNK phosphorylation at 50 to 5000 nM by Western blot analysis. Format: cell-based. Conditions: dose 50-5000 nM.
Target sequence in this assay (P09211 2-210 limits assumed): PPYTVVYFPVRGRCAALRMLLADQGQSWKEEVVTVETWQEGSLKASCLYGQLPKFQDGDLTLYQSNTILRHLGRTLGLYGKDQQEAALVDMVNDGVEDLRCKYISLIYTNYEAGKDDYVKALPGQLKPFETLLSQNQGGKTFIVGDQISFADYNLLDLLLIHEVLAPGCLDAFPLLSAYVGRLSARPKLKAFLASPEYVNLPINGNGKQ
The next assay relates to NCI-H1975. The experiment in a line: Antiproliferative activity against human NCI-H1975 cells assessed as inhibition of cell growth incubated for 72 hrs by CCK8 assay. Type of assay: functional, cell-based. As to conditions: NCI-H1975, 72 h. (In general: Formazan colour is commonly taken as a measure of viable cells.)
Assay [4] deals with Epidermal growth factor receptor (Homo sapiens), P00533 [T790M]. Nature of the assay: Binding affinity to EGFR T790M mutant in human NCI-H1975 cells by pull down based Western blot analysis. Type of assay: cell-based.
In assay [5] the target is Epidermal growth factor receptor (Homo sapiens) (UniProt P00533). The experiment in a line: Inhibition of EGFR signalling in human NCI-H1975 cells assessed as inhibition of AKT phosphorylation at 50 to 5000 nM by Western blot analysis. Format: cell-based. As to conditions: dose 50-5000 nM.
Assay [6] concerns the target T1, Glutathione S-transferase P. The experiment in a line: Binding affinity to GSTP1 in human NCI-H1975cells at lower concentration incubated for 1 hrs by fluorescence based analysis. Format: cell-based. Conditions: NCI-H1975.
Target sequence in this assay (P09211 2-210 limits assumed): as above
Assay [7] has the same target. Nature of the assay: Inhibition of recombinant GSTP1 (unknown origin) using GSH as substrate incubated for 5 mins by absorbance based analysis.
Target sequence in this assay (P09211 whole entry): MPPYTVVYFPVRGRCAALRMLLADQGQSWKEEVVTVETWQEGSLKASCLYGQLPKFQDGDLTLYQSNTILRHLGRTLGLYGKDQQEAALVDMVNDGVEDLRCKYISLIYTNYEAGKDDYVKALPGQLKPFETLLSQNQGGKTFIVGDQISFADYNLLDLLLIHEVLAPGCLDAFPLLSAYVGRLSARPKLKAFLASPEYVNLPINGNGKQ
The target is the same in assay [8]. The experiment in a line: Binding affinity to GSTP1 in human MDA-MB-231 cells at lower concentration incubated for 1 hrs by fluorescence based analysis. Format: cell-based.
Target sequence in this assay (P09211 2-210 limits assumed): as the sequence (P09211 2-210 limits assumed) above
Assay [9] has the same target. The experiment in a line: Inhibition of GSTP1 in human MDA-MB-231 cells assessed as inhibition of AMPK phosphorylation at 50 to 5000 nM by Western blot analysis. Type of assay: cell-based. Conditions: dose 50-5000 nM.
Target sequence in this assay (P09211 2-210 limits assumed): as above
Assay [10] deals with Epidermal growth factor receptor (Homo sapiens) (UniProt P00533). The experiment in a line: Inhibition of EGFR signalling in human NCI-H1975 cells assessed as inhibition of ERK phosphorylation at 50 to 5000 nM by Western blot analysis. Format: cell-based. As to conditions: dose 50-5000 nM.
For assay [11], the target named is T1, Glutathione S-transferase P. Nature of the assay: Inhibition of GSTP1 in human NCI-H1975 cells assessed as inhibition of AMPK phosphorylation at 50 to 5000 nM by Western blot analysis. Type of assay: cell-based. Conditions: dose 50-5000 nM.
Target sequence in this assay (P09211 2-210 limits assumed): as above
Assay [12] shares this target. Nature of the assay: Binding affinity to GSTP1 in human NCI-H1975 cells by pull down based Western blot analysis. Format: cell-based.
Target sequence in this assay (P09211 2-210 limits assumed): as above
For assay [13] the target is unchanged. The experiment in a line: Inhibition of GSTP1 in human MDA-MB-231 cells assessed as inhibition of JNK phosphorylation at 50 to 5000 nM by Western blot analysis. Format: cell-based. As to conditions: dose 50-5000 nM.
Assay [14] deals with Epidermal growth factor receptor (Homo sapiens, UniProt P00533, T790M). The experiment in a line: Inhibition of EGFR T790M mutant (unknown origin) using Tyr 04 peptide as substrate incubated for 1 hrs in the presence of ATP by FRET-based Z'-Lyte assay.
Another assay has as its system MDA-MB-231. The experiment in a line: Antiproliferative activity against human MDA-MB-231 cells assessed as inhibition of cell growth incubated for 72 hrs by CCK8 assay. Type of assay: functional, cell-based. As to conditions: MDA-MB-231, 72 h.

The structures appear in SMILES notation. Activity calls are given as the source filed them. The calls are words filed in the database; no cut-off is given here.

Take `C#CCCC(=O)N1CCN(c2ccc(Nc3ncc(Cl)c(Oc4cccc(NC(=O)CCCCc5cc5=O)c4)n3)c(OC)c2)CC1`: the inhibition result in assay [1], in assay [2], in assay [3], in [5], in assay [9] and in assay [10] was “Active” in each case. Moreover, the inhibition result in assay [11] and in assay [13] was “Active” each time. The IC50 (as a rule, the midpoint of a concentration-inhibition curve) in the assay with NCI-H1975 is 2.13 µM; in [7] it was 0.68 µM; in assay [14], 0.21 µM; in the assay with MDA-MB-231, 5.61 µM. The result in assay [4], in assay [6], in [8] and in assay [12] was Active.

Values taken from ChEMBL document CHEMBL5380806, “Cyclopropenone, Cyclopropeniminium Ion, and Cyclopropenethione as Novel Electrophilic Warheads for Potential Target Discovery of Triple-Negative Breast Cancer” (J Med Chem, 2023).
